Consider three molecules from ChEMBL document CHEMBL5331052, “Discovery of a novel water-soluble, rapid-release triptolide prodrug with improved drug-like properties and high efficacy in human acute myeloid leukemia” (Eur J Med Chem, 2022).

pIC50: −log10 of the molar value. The source made the active and inactive calls. No cut-off for these calls is given here.

Series [1] in a line: Chemical stability of the compound in water assessed as parent compound remaining at 2 mg/ml measured immediately by HPLC analysis. The series is classed as physicochemical. The conditions noted are these: read-out: Stability.
Series [2] can be described thus: Aqueous solubility of compound at 1 to 10 mg/ml by HPLC analysis. The following applies: water; dose 1-10 mg/ml. Format: physicochemical.
The nature of series [3]: Chemical stability of the compound in water assessed as parent compound remaining at 2 mg/ml measured after 4 hrs by HPLC analysis. The series is classed as physicochemical. The following applies: read-out: Stability.
Series [4] is described as follows: Prodrug conversion in Sprague-Dawley rat plasma assessed as triptolide release at 50 ug/ml measured after 30 mins by HPLC analysis. The series is classed as ADME, cell-free. The following applies: 0.5 h, dose 50 µg/ml.
A short description of series [5]: Prodrug conversion in human plasma assessed as triptolide release at 50 ug/ml measured after 45 mins by HPLC analysis. Format: ADME, cell-free. The following applies: 0.75 h, dose 50 µg/ml.
Series [6] in a line: Prodrug conversion in human plasma assessed as triptolide release at 1 mg/ml measured after 1 hrs by HPLC analysis. The series is classed as ADME, cell-free.
The nature of series [7]: Prodrug conversion in human plasma assessed as triptolide release at 50 to 5000 ng/ml measured for 1 hrs by HPLC analysis. The series is classed as ADME, cell-free. The following applies: dose 50-5000 ng/ml.
A short description of series [8]: Prodrug conversion in human plasma assessed as triptolide release at 500 ng/ml measured after 1 hrs by UPLC-MS/MS analysis. Format: ADME, cell-free.
Series [9] can be described thus: Prodrug conversion in Sprague-Dawley rat plasma assessed as triptolide release at 500 ng/ml measured after 1 hrs by UPLC-MS/MS analysis. The series is classed as ADME, cell-free.
The nature of series [10]: Microsomal stability in rat liver microsomes assessed as half life. The series is classed as ADME, Microsome. (In general: Liver microsomes are a subcellular fraction often used to study metabolism.)
A short description of series [11]: Microsomal stability in rat liver microsomes assessed as intrinsic clearance. Format: ADME, Microsome. The following applies: read-out: CLH.
Series [12] can be described thus: Microsomal stability in rat liver microsomes assessed as hepatic clearance. Format: ADME, Microsome.
The subject of series [13] is THP-1. The series can be described thus: Antiproliferative activity against human THP-1 cells assessed as inhibition of cell growth measured after 48 hrs by CCK8 assay. Format: functional, cell-based. The following applies: THP-1, 48 h. (In general: Formazan colour is commonly taken as a measure of viable cells.)
The subject of series [14] is MV4-11. Kind of series: Antiproliferative activity against human MV4-11 cells assessed as cell growth inhibition measured after 48 hrs by CCK8 assay. The series is classed as functional, cell-based. The following applies: MV4-11, 48 h.
For a further series, the system named is PBMC. The series can be described thus: Cytotoxicity against human PBMC cells assessed as cell survial at 30 to 300 nM measured after 48 hrs by CCK8 assay. The conditions noted are these: 0.3 µM, dose 30-300 nM. The series is classed as toxicity, cell-based.
The test system of series [15] is MV4-11. The series can be described thus: Antiproliferative activity against human MV4-11 cells assessed as cell growth inhibition measured after 24 hrs by Edu incorporation assay. The series is classed as functional, cell-based.
For series [16], the system named is THP-1. The series can be described thus: Antiproliferative activity against human THP-1 cells assessed as cell growth inhibition measured after 24 hrs by Edu incorporation assay. Format: functional, cell-based. The following applies: dose 30-120 nM.
For series [17], the system named is THP-1. The series can be described thus: Antitumor activity against human THP-1 cells xenografted in BALB/c nude mouse assessed as tumor growth inhibition at 100 microg/kg, ip qd measured every 2 days for 28 days relative to control. Format: functional. The following applies: THP-1, 672 h, dose 100 µg/kg, time 28 day, read-out: TGI. On the technique in general: In xenograft studies the graft and the host belong to different species.

The subject of series [18] is THP-1. Kind of series: Antitumor activity against human THP-1 cells xenografted in BALB/c nude mouse assessed as complete tumor regression at 300 microg/kg, ip qd measured every 2 days for 16 days. Format: functional, organism-based. The following applies: dose 300.0 µg/kg, time 16.0 day.
A short description of series [19]: Toxicity in BALB/c nude mouse xenografted with human THP-1 cells assessed as change in body weight at 0.1 to 1.2 mg/kg, ip qd measured every 2 days for 28 days. The series is classed as organism-based. The conditions noted are these: in vivo, 672 h, dose 0.1-1.2 mg/kg, time 28 day.
Series [20] can be described thus: Toxicity in BALB/c nude mouse xenografted with human THP-1 cells assessed as animal death at 2.4 to 4.8 mg/kg, ip qd measured after 2 to 3 days. The series is classed as organism-based. The conditions noted are these: in vivo, dose lower 2.4 mg/kg, time lower 2 day, dose upper 4.8 mg/kg, time upper 3 day.
The test system of series [21] is MV4-11. Kind of series: Antitumor activity against human MV4-11 cells xenografted in BALB/c nude mouse assessed as tumor growth inhibition at 25 microg/kg, ip qd measured every 2 days for 28 days relative to control. The conditions noted are these: MV4-11, 672 h, dose 25 µg/kg, time 28 day, read-out: TGI. The series is classed as functional.
Series [22] concerns MV4-11. Kind of series: Antitumor activity against human MV4-11 cells xenografted in BALB/c nude mouse assessed as complete tumor regression at 100 microg/kg, ip qd measured every 2 days for 12 days. The series is classed as functional, organism-based. The following applies: dose 100.0 µg/kg, time 12.0 day.
The subject of series [23] is MV4-11. Kind of series: Antitumor activity against human MV4-11 cells xenografted in ip dosed BALB/c nude mouse assessed as cell growth inhibition by measuring effect on Ki67 protein expression in tumor administered daily and measured after 28 days by immunohistochemical analysis. The series is classed as functional, organism-based. The following applies: dose 25-50 µg/kg, time 28.0 day.

Series [24] has as its system MV4-11. Kind of series: Antitumor activity against human MV4-11 cells xenografted in ip dosed BALB/c nude mouse assessed as induction of apoptosis by measuring increase in cleaved caspase-3 level in tumor administered daily and measured after 28 days by immunohistochemical staining based analysis. Format: functional, organism-based. The conditions noted are these: dose 25-50 µg/kg, time 28.0 day.

Series [25] deals with THP-1. The series can be described thus: Antitumor activity against human THP-1 cells xenografted in BALB/c nude mouse assessed as cell growth inhibition by measuring effect on Ki67 protein expression in tumor at 0.1 mg/kg, ip administered daily and measured after 28 days by immunohistochemical analysis. Format: functional, organism-based. The following applies: time 28.0 day.

Series [26] relates to THP-1. The series can be described thus: Antitumor activity against human THP-1 cells xenografted in BALB/c nude mouse assessed as induction of apoptosis by measuring increase in cleaved caspase-3 level in tumor at 0.1 mg/kg, ip administered daily and measured after 28 days by immunohistochemical staining based analysis. Format: functional, organism-based. The following applies: time 28.0 day.

The test system of series [27] is MV4-11. Kind of series: Antitumor activity against human MV4-11 cells xenografted in BALB/c nude mouse assessed as tumor growth inhibition at 300 microg/kg/day, IG measured everyday for 11 days relative to control. The series is classed as functional. The following applies: MV4-11, po, 264 h, at 300 µg/kg/day, time 11 day, read-out: TGI.
A short description of series [28]: Toxicity in BALB/c nude mouse xenografted with human MV4-11 cells assessed as change in body weight at 180 microg/kg/day, IG measured everyday for 11 days. The following applies: in vivo, po, 264 h, dose 180 µg/kg/day, time 11 day.
The test system of series [29] is MV4-11. The series can be described thus: Antitumor activity against human MV4-11 cells xenografted in BALB/c nude mouse assessed as tumor growth inhibition at 50 microg/kg, ip administered for 20 days in presence of gilteritinib and measured every 2 days relative to control. Format: functional. The conditions noted are these: MV4-11, 480 h, dose 50 µg/kg, time 20 day, read-out: TGI.

Series [30] deals with MV4-11. The series can be described thus: Antitumor activity against human MV4-11 cells xenografted in BALB/c nude mouse assessed as cell growth inhibition by measuring effect on Ki67 protein expression in tumor at 50 microg/kg, ip administered for 20 days in presence of gilteritinib by immunohistochemical analysis. The series is classed as functional, organism-based. The following applies: dose 50.0 µg/kg, time 20.0 day.

In series [31] the test system is MV4-11. The series can be described thus: Antitumor activity against human MV4-11 cells xenografted in BALB/c nude mouse assessed as induction of apoptosis by measuring caspase-3 level in tumor at 50 microg/kg, ip administered for 20 days in presence of gilteritinib by immunohistochemical analysis. The series is classed as functional, organism-based. The following applies: dose 50.0 µg/kg, time 20.0 day.

Series [32] is described as follows: Prodrug conversion in human plasma assessed as (5bS,6aS,7aR,8R,8aS,9aS,9bS,10bS)-8a-isopropyl-10b-methyl-3-oxo-1,2,3,5,5b,6,6a,8,8a,9a,9b,10b-dodecahydrotris(oxireno [2',3':4b,5;2'',3'':6,7;2''',3''':8a,9]phenanthro[1,2-c]furan-8-yl 2-hydroxyacetate intermediate formation by HPLC analysis. The series is classed as ADME, cell-free.
Series [33] can be described thus: Prodrug conversion in human plasma assessed as (5bS,6aS,7aR,8R,8aS,9aS,9bS,10bS)-8a-isopropyl-10b-methyl-3-oxo-1,2,3,5,5b,6,6a,8,8a,9a,9b,10b-dodecahydrotris(oxireno [2',3':4b,5;2'',3'':6,7;2''',3''':8a,9]phenanthro[1,2-c]furan-8-yl 2-hydroxyacetate intermediate formation measured after 1 hr by HPLC analysis. Format: ADME, cell-free.
Series [34] concerns THP-1. The series can be described thus: Potency index, ratio of test compound IC50 to triptolide IC50 for antiproliferative activity against human THP-1 cells assessed as inhibition of cell growth measured after 48 hrs by CCK8 assay. Format: functional.
Series [35] deals with MV4-11. The series can be described thus: Potency index, ratio of test compound IC50 to triptolide IC50 for antiproliferative activity against human MV4-11 cells assessed as inhibition of cell growth measured after 48 hrs by CCK8 assay. The series is classed as functional.
Series [36] in a line: Prodrug conversion in Sprague-Dawley rat plasma assessed as triptolide release at 500 ng/ml measured after 8 hrs by UPLC-MS/MS analysis. Format: ADME, cell-free.

By solubility is commonly meant how much of the substance goes into solution per volume. The half-life is how long it takes for the measured level to halve. The term pIC50 denotes the IC50 on a negative log10 scale, so that one unit is a factor of ten. Take `CC(C)[C@]12O[C@H]1[C@@H]1O[C@]13[C@]1(O[C@H]1C[C@H]1C4=C(CC[C@@]13C)C(=O)OC4)[C@@H]2OC(=O)COC(=O)CN1CCOCC1.Cl`: the remaining at 0 h, 2 mg/ml in series [1] stood at 99.4%. Moreover, the concentration in solution in series [2] (solubility) was 6130 µg/mL. Also, the remaining at 4 h, 2 mg/ml in series [3] stood at 99.1%. In addition, the Drug metabolism entry in series [4], in series [5], in series [6], in [7], in series [8] and in series [9] was “Metabolite_Detected” throughout. Moreover, the Drug metabolism result is “Metabolite_Detected” in series [32] and “Metabolite_Notdetected” in [33]. Also, the half-life in [10] was 8.64 min. Also, the CLint scaled in series [11] was determined as 288 mL/min/kg. Besides, the CLhep predicted in series [12] was 65.6 mL/min/kg. The values for the pIC50 in the series with THP-1 [13] and in the series on MV4-11 [14] were 7.83 and 7.34, respectively. Also, the Activity result is “Non-Toxic” with PBMC; “Dose-Dependent Effect” in the series on MV4-11 [15]; “Dose-Dependent Effect” with THP-1 [16]; “Non-Toxic” in [19]; “Toxic” in [20]; “Dose-Dependent Effect” in the series with MV4-11 [23]. Also, the Activity entry was “Dose-Dependent Effect” in the series on MV4-11 [24] and “Non-Toxic” in series [28]. Further, in the series with THP-1 [17], the inhibition in vivo at 0.1 mg/kg came to 93.9%. The outcome in the series with THP-1 [18], in the series with MV4-11 [22], in the series with THP-1 [25], in the series with THP-1 [26], in the series on MV4-11 [30] and in the series on MV4-11 [31] was Active. In addition, the inhibition in vivo at 0.025 mg/kg in the series with MV4-11 [21] came out at 54.3%. The inhibition in vivo at 0.3 mg/kg/day with MV4-11 [27] was determined as 93.5%. In the series with MV4-11 [29], the inhibition in vivo at 0.05 mg/kg amounted to 78.1%. In addition, the “Ratio IC50” value in the series with THP-1 [34] and in the series on MV4-11 [35] was 2 throughout.
As for `CC(C)[C@]12O[C@H]1[C@@H]1O[C@]13[C@]1(O[C@H]1C[C@H]1C4=C(CC[C@@]13C)C(=O)OC4)[C@@H]2OCOP(=O)([O-])[O-].[Na+].[Na+]` [MINNELIDE], the Drug metabolism entry in [36] is reported as “Metabolite_Detected”.
For the molecule `CC(C)[C@]12O[C@H]1[C@@H]1O[C@]13[C@]1(O[C@H]1C[C@H]1C4=C(CC[C@@]13C)C(=O)OC4)[C@@H]2OC(=O)COC(=O)CN1CCN(C)CC1.Cl`, the remaining at 0 h, 2 mg/ml in [1] turned out to be 96.8%. The same molecule came in with a solubility in series [2] of 3820 µg/mL. Moreover, the remaining at 4 h, 2 mg/ml in [3] is 96.7%. Besides, in series [4], the Drug metabolism entry is “Metabolite_Detected”.
